Tests used:
Test in all cases: relative viability (nuclei count vs DMSO), 5 days (fraction); higher = more cells survive
FH535 + Trametinib = compound: CC1=C(C=CC(=C1)[N+](=O)[O-])NS(=O)(=O)C2=C(C=CC(=C2)Cl)Cl [FH535] + CC(=O)Nc1cccc(-n2c(=O)n(C3CC3)c(=O)c3c(Nc4ccc(I)cc4F)n(C)c(=O)c(C)c32)c1 [Trametinib] (partner 0.02 µM)
How it was run: (§1)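 Nuclei were stained with Hoechst during a one-step fixation (final 0.05% Triton X-100, 1% formaldehyde, 1 ug/ml Hoechst) carried out 5 days after dosing, then counted on 4× images. The cells, lung cancer lines in 1536-well plates, had been dosed by pin tool the day after seeding with one drug alone or a fixed anchor-drug dose plus five library-drug doses (not always all listed) in √10 steps. Relative viability is the nuclei count in treated wells divided by that in vehicle wells, and each value is the median of duplicate plates.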

FH535 + Palbociclib = compound: CC1=C(C=CC(=C1)[N+](=O)[O-])NS(=O)(=O)C2=C(C=CC(=C2)Cl)Cl [FH535] + CC(=O)c1c(C)c2cnc(Nc3ccc(N4CCNCC4)cn3)nc2n(C2CCCC2)c1=O [Palbociclib] (partner 0.5 µM)
How it was run: as §1

FH535 + Tozasertib = compound: CC1=C(C=CC(=C1)[N+](=O)[O-])NS(=O)(=O)C2=C(C=CC(=C2)Cl)Cl [FH535] + Cc1cc(Nc2cc(N3CCN(C)CC3)nc(Sc3ccc(NC(=O)C4CC4)cc3)n2)n[nH]1 [Tozasertib] (partner 0.1 µM)
How it was run: as §1

FH535 + Dasatinib = compound: CC1=C(C=CC(=C1)[N+](=O)[O-])NS(=O)(=O)C2=C(C=CC(=C2)Cl)Cl [FH535] + Cc1nc(Nc2ncc(C(=O)Nc3c(C)cccc3Cl)s2)cc(N2CCN(CCO)CC2)n1 [Dasatinib] (partner 0.075 µM)
How it was run: as §1

FH535 + AZD7762 = compound: CC1=C(C=CC(=C1)[N+](=O)[O-])NS(=O)(=O)C2=C(C=CC(=C2)Cl)Cl [FH535] + NC(=O)Nc1cc(-c2cccc(F)c2)sc1C(=O)N[C@H]1CCCNC1 [AZD7762] (partner 0.2 µM)
How it was run: as §1

| Cell Line | relative viability (FH535 + Trametinib; first compound 0.04 µM) | relative viability (FH535 + Trametinib; first compound 0.1265 µM) | relative viability (FH535 + Trametinib; first compound 0.4 µM) | relative viability (FH535 + Trametinib; first compound 1.265 µM) | relative viability (FH535 + Palbociclib; first compound 0.04 µM) | relative viability (FH535 + Palbociclib; first compound 0.1265 µM) | relative viability (FH535 + Palbociclib; first compound 0.4 µM) | relative viability (FH535 + Palbociclib; first compound 1.265 µM) | relative viability (FH535 + Tozasertib; first compound 0.04 µM) | relative viability (FH535 + Tozasertib; first compound 0.1265 µM) | relative viability (FH535 + Tozasertib; first compound 0.4 µM) | relative viability (FH535 + Tozasertib; first compound 1.265 µM) | relative viability (FH535 + Dasatinib; first compound 0.04 µM) | relative viability (FH535 + Dasatinib; first compound 0.1265 µM) | relative viability (FH535 + Dasatinib; first compound 0.4 µM) | relative viability (FH535 + Dasatinib; first compound 1.265 µM) | relative viability (FH535 + AZD7762; first compound 0.04 µM) | relative viability (FH535 + AZD7762; first compound 0.1265 µM) | relative viability (FH535 + AZD7762; first compound 0.4 µM) | relative viability (FH535 + AZD7762; first compound 1.265 µM) |
| --- | --- | --- | --- | --- | --- | --- | --- | --- | --- | --- | --- | --- | --- | --- | --- | --- | --- | --- | --- | --- |
| LCLC-103H | 0.711 | 0.665 | 0.707 | 0.5 | 0.509 | 0.426 | 0.493 | 0.416 | 0.417 | 0.521 | 0.516 | 0.453 | 0.441 | 0.369 | 0.353 | 0.384 | 0.737 | 0.734 | 0.744 | 0.67 |
| NCI-H1915 | 0.312 | 0.324 | 0.296 | 0.247 | 0.537 | 0.501 | 0.469 | 0.45 | 0.38 | 0.418 | 0.429 | 0.356 | 0.292 | 0.306 | 0.287 | 0.3 | 0.604 | 0.77 | 0.713 | 0.669 |
| ChaGo-K-1 | 0.871 | 0.896 | 0.742 | 0.503 | 0.893 | 0.946 | 0.888 | 0.531 | 0.225 | 0.236 | 0.216 | 0.202 | 0.581 | 0.563 | 0.54 | 0.563 | 0.797 | 0.927 | 0.771 | 0.729 |
| PC-3 [JPC-3] | 0.726 | 0.829 | 0.691 | 0.607 | 0.494 | 0.548 | 0.529 | 0.548 | 0.846 | 0.901 | 0.795 | 0.513 | 1.05 | 0.812 | 0.837 | 0.749 | 0.773 | 0.83 | 0.656 | 0.508 |
| NCI-H1437 | 0.498 | 0.567 | 0.386 | 0.32 | 0.316 | 0.314 | 0.237 | 0.229 | 0.425 | 0.404 | 0.358 | 0.22 | 0.372 | 0.405 | 0.184 | 0.109 | 1.11 | 1.13 | 1.01 | 0.502 |
| NCI-H1734 | 0.574 | 0.671 | 0.656 | 0.558 | 0.375 | 0.312 | 0.351 | 0.332 |  | 0.26 | 0.263 | 0.297 |  | 0.507 | 0.476 | 0.431 | 0.562 | 0.603 | 0.563 | 0.554 |
| LK-2 | 0.637 | 0.688 | 0.81 | 0.732 | 0.624 | 0.578 | 0.553 | 0.593 | 0.166 | 0.172 | 0.169 | 0.201 | 0.308 | 0.248 | 0.294 | 0.327 | 0.425 | 0.459 | 0.323 | 0.39 |
| HCC-15 | 0.288 | 0.358 | 0.406 | 0.316 | 0.651 | 0.781 | 0.639 | 0.523 | 0.457 | 0.414 | 0.409 | 0.482 | 0.552 | 0.632 | 0.505 | 0.49 | 1.18 | 1.21 | 1.06 | 1.13 |
| HCC-366 | 0.379 | 0.387 | 0.274 | 0.34 | 0.418 | 0.412 | 0.37 | 0.296 | 0.0788 | 0.106 | 0.123 | 0.0854 | 0.571 | 0.713 | 0.632 | 0.487 | 0.244 | 0.289 | 0.307 | 0.247 |
| NCI-H2405 | 0.56 | 0.651 | 0.611 | 0.531 | 0.5 | 0.504 | 0.492 | 0.354 | 0.746 | 0.755 | 0.782 | 0.579 | 0.202 | 0.243 | 0.232 | 0.221 | 0.665 | 0.794 | 0.641 | 0.5 |
| LXF-289 | 0.726 | 0.689 | 0.62 | 0.436 | 0.597 | 0.618 | 0.559 | 0.497 | 0.191 | 0.172 | 0.166 | 0.136 | 0.205 | 0.262 | 0.225 | 0.212 | 1.05 | 1.1 | 1.03 | 0.873 |
| BEN | 0.931 | 0.99 | 0.948 | 0.666 | 0.477 | 0.455 | 0.489 | 0.431 | 0.547 | 0.483 | 0.483 | 0.487 | 0.247 | 0.351 | 0.258 | 0.214 | 0.6 | 0.691 | 0.496 | 0.507 |
| NCI-H727 | 0.402 | 0.362 | 0.365 | 0.387 | 0.663 | 0.634 | 0.693 | 0.63 | 0.465 | 0.545 | 0.582 | 0.504 | 0.405 | 0.434 | 0.364 | 0.402 | 0.409 | 0.59 | 0.595 | 0.59 |
| NCI-H1355 | 0.397 | 0.428 | 0.406 | 0.329 | 0.394 | 0.436 | 0.4 | 0.324 | 0.507 | 0.584 | 0.557 | 0.399 | 0.723 | 0.692 | 0.57 | 0.605 | 0.688 | 0.843 | 0.727 | 0.76 |
| NCI-H1793 | 0.4 | 0.421 | 0.425 | 0.399 | 0.315 | 0.306 | 0.348 | 0.241 | 0.305 | 0.297 | 0.353 | 0.213 | 0.321 | 0.342 | 0.296 | 0.339 | 0.43 | 0.631 | 0.418 | 0.483 |
| PC-14 | 0.652 | 0.815 | 0.895 | 0.693 | 0.512 | 0.6 | 0.593 | 0.548 | 0.507 | 0.693 | 0.615 | 0.617 | 0.282 | 0.287 | 0.251 | 0.245 | 0.357 | 0.416 | 0.245 | 0.349 |

— the supplement of paper PMC10307832
